Literature values in patent US20040101542A1, “Skin care composition with retinyl ester as vitamin a propionate retinyl palmitate d-alpha tocopherol rice amino acids and liposomes and method of application” (priority 2003, published 2004).

Settings: at 24 hours

- uptake and distribution in the deeper skin strata, liposomal formulations versus solutions or emulsions: 3-4 times higher
SMILES: CC1=C(/C=C/C(C)=C/C=C/C(C)=C/C(=O)O)C(C)(C)CCC1 [retinoic acid]
